Measurements from the NIST ThermoML archive (doi:10.1016/j.fluid.2019.04.036).

Settings: Liquid, Transpiration method

CCCN(C=O)CCC [N,N-dipropylformamide]
Settings	vapor or sublimation pressure [kPa]
278.5 K	0.00516
282.4 K	0.00741
283.4 K	0.00814
285.1 K	0.00949
288.2 K	0.01246
290.2 K	0.01527
292.2 K	0.01766
294.8 K	0.02239
295.8 K	0.02392
296.5 K	0.02608
298.4 K	0.03075
299.4 K	0.03131
301.2 K	0.03699
302.9 K	0.04152
305.1 K	0.05251
306.1 K	0.05391
307.2 K	0.05892
308.2 K	0.06219
310.4 K	0.07592
311.3 K	0.08121
313.4 K	0.09479
315.4 K	0.113
316.4 K	0.1145
318.5 K	0.1321
319.4 K	0.1476

CCN(C=O)CC [N,N-diethylformamide]
Settings	vapor or sublimation pressure [kPa]
288.8 K	0.0751
292.2 K	0.0961
295.1 K	0.1173
300.5 K	0.1677
300.7 K	0.169
303.7 K	0.211
305.7 K	0.2482
310.7 K	0.3265
315.7 K	0.4646
320.8 K	0.6274
323.2 K	0.7094
325.8 K	0.8534
330.9 K	1.093
335.9 K	1.479
338.5 K	1.733
340.9 K	1.948
346 K	2.46
348.5 K	2.893
350.9 K	3.209
356.1 K	4.164

CCCCN(C=O)CCCC [N,N-dibutylformamide]
Settings	vapor or sublimation pressure [kPa]
293.1 K	0.0026
295.8 K	0.00329
296.9 K	0.00365
298 K	0.004
298.7 K	0.00421
298.9 K	0.00438
299.3 K	0.00469
301.4 K	0.00534
304.5 K	0.00695
304.6 K	0.00705
304.8 K	0.00709
308.3 K	0.0097
308.7 K	0.01006
309.9 K	0.01103
310.7 K	0.01193
311.6 K	0.01265
312.5 K	0.01383
313.3 K	0.01469
314.7 K	0.01666
315.1 K	0.01677
315.3 K	0.01776
318.2 K	0.0217
318.4 K	0.02183
320.5 K	0.0256
321.1 K	0.02589
322.6 K	0.03097
322.8 K	0.03141
323.8 K	0.03251
325.8 K	0.03894
326.8 K	0.04037
329.4 K	0.04901
329.6 K	0.04927
334.7 K	0.0724

CCCCNC=O [N-butylformamide]
Settings	vapor or sublimation pressure [kPa]
297.1 K	0.00293
298.2 K	0.00321
299.3 K	0.00349
301.2 K	0.00422
304.2 K	0.0056
307.2 K	0.00731
310.2 K	0.00912
314.1 K	0.01307
316.2 K	0.01498
317.8 K	0.01763
318.2 K	0.01802
320.2 K	0.02208
323.1 K	0.02695
326.2 K	0.03461
329.1 K	0.04093
331.2 K	0.05017
334.2 K	0.06336
337.1 K	0.07893
340.2 K	0.09365
343.2 K	0.1151
346.2 K	0.1403
349.1 K	0.1719
352.2 K	0.208

CN(C)C=O [dimethylformamide]
Settings	vapor or sublimation pressure [kPa]
276.3 K	0.1229
279.3 K	0.1498
281.2 K	0.1752
283.1 K	0.1994
285.3 K	0.2375
289.3 K	0.314
291.3 K	0.3569
293.3 K	0.4045
296.3 K	0.4849
299.5 K	0.5941
302.2 K	0.6949
305.2 K	0.847
